Legend:
Format in all cases: in vivo
[1] = test system: BOILF = Spermacoce latifolia; test: Field weed control, early post-emergence application; details: gai/ha Imazapyr 72, Imazapyr + imazapic 70, Glyphosate 540
[2] = test system: GASPA = Galinsoga parviflora; test: Field weed control, burn down application; details: burn down 5 days before planting, g ai/ha Glyphosate 1080, Imazapic 70, Imazapic + imazapyr 70
Description: (§3) All the procedures from planting to harvest were the same for all three locations. The herbicides were applied at burn down five days before the soybean planting.
(§4) A completely randomized block design with three replications was used.
(§5) Imidazolinone-tolerant soybean derived from event 127 was planted 5 cm deep at population of 380,000 seeds/ha in 50 cm row spacing. The imidazolinones herbicides were applied with a nonionic adjuvant, Dash, at 0.25% v/v. A CO^2 backpack sprayer with 80015 low pressure nozzles delivering 170 l/ha at 190 kpa was used for all herbicide applications (Table 18).
(§6) Crop injury was assessed 15 and 30 days after planting (DAP) based on a 0 to 100 scale where 0 is no injury and 100 is crop death. Herbicide efficacy was assessed at 15, 30 and 60 DAP based on a 0 to 100 scale, where 0 is no control and 100 is total control.

[3] = test system: IPOGR = Ipomoea grandifolia; test: Field weed control, early post-emergence application; details: gai/ha Imazapyr 72, Imazapyr + imazapic 70, Glyphosate 540
[4] = test system: SIDRH = Sida rombifolia; test: as above; details: gai/ha Imazapyr 72, Imazapyr + imazapic 70, Glyphosate 540
[5] = test system: EPHHL = Euphorbia heterophylla; test: as above; details: gai/ha Imazapyr 72, Imazapyr + imazapic 70, Glyphosate 540
[6] = test system: glyphosate resistant corn; test: Greenhouse injury rate, postemergence application; details: 14 DAT
Method: (§1) Greenhouse studies were conducted to determine whether imidazolinone herbicides could be used in the control of undesired glyphosate tolerant weeds and crops growing in a cultivated area. […] Plants were maintained in a greenhouse with overhead watering.
(§2) Postemergence sprays were conducted at the 2-true leaf stage for corn and soybean and at the 9-true leaf stage for horseweed. […] The percent overall injury rate was visually determined 14 days after treatment (DAT) and 25 days after treatment (DAT). […] The results of the postemergence tests are summarized in Table 20 and the results of the pre-emergence study are summarized in Table 21. Results are provided as averages of the 5 individual plants.

[7] = test system: glyphosate resistant soybean; test: Greenhouse injury rate, postemergence application; details: 14 DAT
Method: as §1, §2

[8] = test system: glyphosate resistant horseweed; test: Greenhouse injury rate, postemergence application
Method: as §1, §2

[9] = test system: COMBE = Commelina benghalensis; test: Field weed control, early post-emergence application; details: gai/ha Imazapyr 72, Imazapyr + imazapic 70, Glyphosate 540
[10] = test system: EPHHL = Euphorbia heterophylla; test: Field weed control, burn down application; details: burn down 5 days before planting, g ai/ha Glyphosate 1080, Imazapic 70, Imazapic + imazapyr 70
Description: as §3, §4, §5, §6

[11] = test system: IPOGR = Ipomoea grandifolia; test: Field weed control, burn down application; details: burn down 5 days before planting, g ai/ha Glyphosate 1080, Imazapic 70, Imazapic + imazapyr 70
Description: as §3, §4, §5, §6

[12] = test system: RCHBR = Richardia brasiliensis; test: Field weed control, early post-emergence application; details: gai/ha Imazapyr 72, Imazapyr + imazapic 70, Glyphosate 540
[13] = test system: DIGHO = Digitaria horizontalis; test: Field weed control, burn down application; details: burn down 5 days before planting, g ai/ha Glyphosate 1080, Imazapic 70, Imazapic + imazapyr 70
Description: as §3, §4, §5, §6

[14] = test system: glyphosate resistant corn; test: Greenhouse injury rate, preemergence application; details: 14 DAT
Method: as §1, §2

[15] = test system: glyphosate resistant soybean; test: Greenhouse injury rate, preemergence application; details: 14 DAT
Method: as §1, §2

[16] = test system: glyphosate resistant horseweed; test: Greenhouse injury rate, preemergence application; details: 25 DAT
Method: as §1, §2

[17] = test system: BRAPL = Brachiaria plantaginea; test: Field weed control, burn down application; details: burn down 5 days before planting, g ai/ha Glyphosate 1080, Imazapic 70, Imazapic + imazapyr 70
Description: as §3, §4, §5, §6

[18] = test system: COMBE = Commelina benghalensis; test: Field weed control, burn down application; details: burn down 5 days before planting, g ai/ha Glyphosate 1080, Imazapic 70, Imazapic + imazapyr 70
Description: as §3, §4, §5, §6

[19] = test system: BIDPI = Bidens pilosa; test: Field weed control, burn down application; details: burn down 5 days before planting, g ai/ha Glyphosate 1080, Imazapic 70, Imazapic + imazapyr 70
Description: as §3, §4, §5, §6

[20] = test system: CYPRO = Cyperus rotundus; test: Field weed control, early post-emergence application; details: gai/ha Imazapyr 72, Imazapyr + imazapic 70, Glyphosate 540
[21] = test system: CYPRO = Cyperus rotundus; test: Field weed control, burn down application; details: burn down 5 days before planting, g ai/ha Glyphosate 1080, Imazapic 70, Imazapic + imazapyr 70
Description: as §3, §4, §5, §6

O=C(O)CNCP(=O)(O)O [Glyphosate, glyphosate]
Efficacy ([1]; 15 DAT): 82%
Efficacy ([1]; 30 DAT): 75%
Efficacy ([1]; 60 DAT): 68%
Efficacy (%) ([2]; 30 DAT): 19%
Efficacy (%) ([2]; 60 DAT): 12%
Efficacy ([3]; 15 DAT): 90%
Efficacy ([3]; 30 DAT): 87%
Efficacy ([3]; 60 DAT): 73%
Efficacy ([4]; 15 DAT): 82%
Efficacy ([4]; 30 DAT): 77%
Efficacy ([4]; 60 DAT): 70%
Efficacy ([5]; 15 DAT): 85%
Efficacy ([5]; 30 DAT): 77%
Efficacy ([5]; 60 DAT): 72%
Average Overall Injury (%) ([6]; 774 g ae/ha): 1%
Average Overall Injury (%) ([7]; 774 g ae/ha): 1%
Average Overall Injury (%) ([8]; 14 DAT, 774 g ae/ha): 34%
Average Overall Injury (%) ([8]; 25 DAT, 774 g ae/ha): 16%
Efficacy ([9]; 15 DAT): 70%
Efficacy ([9]; 30 DAT): 61%
Efficacy ([9]; 60 DAT): 50%
Efficacy (%) ([10]; 30 DAT): 15%
Efficacy (%) ([10]; 60 DAT): 7%
Efficacy (%) ([11]; 30 DAT): 23%
Efficacy (%) ([11]; 60 DAT): 15%
Efficacy ([12]; 15 DAT): 78%
Efficacy ([12]; 30 DAT): 57%
Efficacy (%) ([13]; 30 DAT): 60%
Efficacy (%) ([13]; 60 DAT): 41%
Average Overall Injury (%) ([14]; 774 g ae/ha): 0%
Average Overall Injury (%) ([15]; 774 g ae/ha): 0%
Average Overall Injury (%) ([16]; 774 g ae/ha): 0%
Efficacy (%) ([17]; 60 DAT): 25%
Efficacy (%) ([18]; 30 DAT): 38%
Efficacy (%) ([18]; 60 DAT): 22%
Efficacy (%) ([19]; 30 DAT): 25%
Efficacy (%) ([19]; 60 DAT): 21%

CC(C)C1(C)N=C(c2ncccc2C(=O)O)NC1=O (stereo not drawn) [imazapyr]
Efficacy ([1]; 15 DAT): 88%
Efficacy ([1]; 30 DAT): 83%
Efficacy ([1]; 60 DAT): 75%
Efficacy ([3]; 15 DAT): 96%
Efficacy ([3]; 30 DAT): 91%
Efficacy ([3]; 60 DAT): 85%
Efficacy ([4]; 15 DAT): 94%
Efficacy ([4]; 30 DAT): 87%
Efficacy ([4]; 60 DAT): 81%
Efficacy ([5]; 15 DAT): 92%
Efficacy ([5]; 30 DAT): 85%
Efficacy ([5]; 60 DAT): 83%
Average Overall Injury (%) ([6]; 20 g ai/ha): 96%
Average Overall Injury (%) ([6]; 40 g ai/ha): 98%
Average Overall Injury (%) ([6]; 80 g ai/ha): 99%
Average Overall Injury (%) ([6]; 120 g ai/ha): 100%
Average Overall Injury (%) ([6]; 240 g ai/ha): 100%
Average Overall Injury (%) ([7]; 20 g ai/ha): 75%
Average Overall Injury (%) ([7]; 40 g ai/ha): 96%
Average Overall Injury (%) ([7]; 80 g ai/ha): 97%
Average Overall Injury (%) ([7]; 120 g ai/ha): 98%
Average Overall Injury (%) ([7]; 240 g ai/ha): 99%
Average Overall Injury (%) ([8]; 14 DAT, 20 g ai/ha): 70%
Average Overall Injury (%) ([8]; 14 DAT, 40 g ai/ha): 79%
Average Overall Injury (%) ([8]; 14 DAT, 80 g ai/ha): 90%
Average Overall Injury (%) ([8]; 14 DAT, 120 g ai/ha): 96%
Average Overall Injury (%) ([8]; 14 DAT, 240 g ai/ha): 97%
Average Overall Injury (%) ([8]; 25 DAT, 20 g ai/ha): 44%
Average Overall Injury (%) ([8]; 25 DAT, 40 g ai/ha): 73%
Average Overall Injury (%) ([8]; 25 DAT, 80 g ai/ha): 97%
Average Overall Injury (%) ([8]; 25 DAT, 120 g ai/ha): 99%
Average Overall Injury (%) ([8]; 25 DAT, 240 g ai/ha): 99%
Efficacy ([9]; 15 DAT): 93%
Efficacy ([9]; 30 DAT): 87%
Efficacy ([9]; 60 DAT): 80%
Efficacy ([12]; 15 DAT): 86%
Efficacy ([12]; 30 DAT): 83%
Efficacy ([12]; 60 DAT): 77%
Average Overall Injury (%) ([14]; 20 g ai/ha): 37%
Average Overall Injury (%) ([14]; 40 g ai/ha): 47%
Average Overall Injury (%) ([14]; 80 g ai/ha): 65%
Average Overall Injury (%) ([14]; 120 g ai/ha): 81%
Average Overall Injury (%) ([14]; 240 g ai/ha): 91%
Average Overall Injury (%) ([15]; 20 g ai/ha): 41%
Average Overall Injury (%) ([15]; 40 g ai/ha): 43%
Average Overall Injury (%) ([15]; 80 g ai/ha): 66%
Average Overall Injury (%) ([15]; 120 g ai/ha): 83%
Average Overall Injury (%) ([15]; 240 g ai/ha): 87%
Average Overall Injury (%) ([16]; 20 g ai/ha): 46%
Average Overall Injury (%) ([16]; 40 g ai/ha): 63%
Average Overall Injury (%) ([16]; 80 g ai/ha): 84%
Average Overall Injury (%) ([16]; 120 g ai/ha): 96%
Average Overall Injury (%) ([16]; 240 g ai/ha): 88%
Efficacy ([20]; 15 DAT): 95%
Efficacy ([20]; 30 DAT): 87%
Efficacy ([20]; 60 DAT): 81%

Cc1cnc(C2=NC(=O)C(C)(C(C)C)N2)c(C(=O)O)c1 (stereo not drawn) [Imazapic, imazapic]
Efficacy (%) ([2]; 30 DAT): 84%
Efficacy (%) ([2]; 60 DAT): 78%
Efficacy (%) ([21]; 30 DAT): 88%
Efficacy (%) ([21]; 60 DAT): 76%
Average Overall Injury (%) ([6]; 20 g ai/ha): 83%
Average Overall Injury (%) ([6]; 40 g ai/ha): 87%
Average Overall Injury (%) ([6]; 80 g ai/ha): 93%
Average Overall Injury (%) ([6]; 160 g ai/ha): 99%
Average Overall Injury (%) ([6]; 240 g ai/ha): 99%
Average Overall Injury (%) ([7]; 20 g ai/ha): 35%
Average Overall Injury (%) ([7]; 40 g ai/ha): 61%
Average Overall Injury (%) ([7]; 80 g ai/ha): 71%
Average Overall Injury (%) ([7]; 160 g ai/ha): 87%
Average Overall Injury (%) ([7]; 240 g ai/ha): 96%
Average Overall Injury (%) ([8]; 14 DAT, 20 g ai/ha): 56%
Average Overall Injury (%) ([8]; 14 DAT, 40 g ai/ha): 59%
Average Overall Injury (%) ([8]; 14 DAT, 80 g ai/ha): 80%
Average Overall Injury (%) ([8]; 14 DAT, 160 g ai/ha): 92%
Average Overall Injury (%) ([8]; 14 DAT, 240 g ai/ha): 94%
Average Overall Injury (%) ([8]; 25 DAT, 20 g ai/ha): 27%
Average Overall Injury (%) ([8]; 25 DAT, 40 g ai/ha): 28%
Average Overall Injury (%) ([8]; 25 DAT, 80 g ai/ha): 69%
Average Overall Injury (%) ([8]; 25 DAT, 160 g ai/ha): 77%
Average Overall Injury (%) ([8]; 25 DAT, 240 g ai/ha): 88%
Efficacy (%) ([10]; 30 DAT): 98%
Efficacy (%) ([10]; 60 DAT): 86%
Efficacy (%) ([11]; 30 DAT): 75%
Efficacy (%) ([11]; 60 DAT): 73%
Efficacy (%) ([13]; 30 DAT): 95%
Efficacy (%) ([13]; 60 DAT): 86%
Average Overall Injury (%) ([14]; 20 g ai/ha): 32%
Average Overall Injury (%) ([14]; 40 g ai/ha): 38%
Average Overall Injury (%) ([14]; 80 g ai/ha): 67%
Average Overall Injury (%) ([14]; 160 g ai/ha): 86%
Average Overall Injury (%) ([14]; 240 g ai/ha): 90%
Average Overall Injury (%) ([15]; 20 g ai/ha): 12%
Average Overall Injury (%) ([15]; 40 g ai/ha): 39%
Average Overall Injury (%) ([15]; 80 g ai/ha): 60%
Average Overall Injury (%) ([15]; 160 g ai/ha): 70%
Average Overall Injury (%) ([15]; 240 g ai/ha): 81%
Average Overall Injury (%) ([16]; 20 g ai/ha): 65%
Average Overall Injury (%) ([16]; 40 g ai/ha): 90%
Average Overall Injury (%) ([16]; 80 g ai/ha): 99%
Average Overall Injury (%) ([16]; 160 g ai/ha): 99%
Average Overall Injury (%) ([16]; 240 g ai/ha): 99%
Efficacy (%) ([17]; 30 DAT): 85%
Efficacy (%) ([17]; 60 DAT): 79%
Efficacy (%) ([18]; 30 DAT): 75%
Efficacy (%) ([18]; 60 DAT): 64%
Efficacy (%) ([19]; 30 DAT): 79%
Efficacy (%) ([19]; 60 DAT): 73%

From patent publication US9961848B2, “Soybean event 127 and methods related thereto” (EMPRESA BRASILEIRA DE PESQUISA AGROPECUARIA—EMBRAPA, priority 2009, dated 2018)
